From patent US20130108610A1 (priority 2011, published 2013)

Assays:
Saccharomyces = details: minimal medium; by inhibition of glutamate and lysine synthesis
aconitase = target: T1, aconitase (Saccharomyces cerevisiae, UniProt P19414); assay: Aconitase activity in lysates of treated Saccharomyces cerevisiae BY4741 cultures (Bioxytech Aconitase-340 kit); type: cell-based; details: for Aconitase Activity, % of Untreated Control: S. cerevisiae BY4741 in YPD, incubated overnight, cell lysate, negative activity reported as 0; for Aconitase inhibition (in words): culturing of cells in the presence of the material, effective = inhibition by 70% or more
T1 construct: endogenous in cells; host or cells: Saccharomyces cerevisiae strain BY4741
T1 sequence (P19414 17-778): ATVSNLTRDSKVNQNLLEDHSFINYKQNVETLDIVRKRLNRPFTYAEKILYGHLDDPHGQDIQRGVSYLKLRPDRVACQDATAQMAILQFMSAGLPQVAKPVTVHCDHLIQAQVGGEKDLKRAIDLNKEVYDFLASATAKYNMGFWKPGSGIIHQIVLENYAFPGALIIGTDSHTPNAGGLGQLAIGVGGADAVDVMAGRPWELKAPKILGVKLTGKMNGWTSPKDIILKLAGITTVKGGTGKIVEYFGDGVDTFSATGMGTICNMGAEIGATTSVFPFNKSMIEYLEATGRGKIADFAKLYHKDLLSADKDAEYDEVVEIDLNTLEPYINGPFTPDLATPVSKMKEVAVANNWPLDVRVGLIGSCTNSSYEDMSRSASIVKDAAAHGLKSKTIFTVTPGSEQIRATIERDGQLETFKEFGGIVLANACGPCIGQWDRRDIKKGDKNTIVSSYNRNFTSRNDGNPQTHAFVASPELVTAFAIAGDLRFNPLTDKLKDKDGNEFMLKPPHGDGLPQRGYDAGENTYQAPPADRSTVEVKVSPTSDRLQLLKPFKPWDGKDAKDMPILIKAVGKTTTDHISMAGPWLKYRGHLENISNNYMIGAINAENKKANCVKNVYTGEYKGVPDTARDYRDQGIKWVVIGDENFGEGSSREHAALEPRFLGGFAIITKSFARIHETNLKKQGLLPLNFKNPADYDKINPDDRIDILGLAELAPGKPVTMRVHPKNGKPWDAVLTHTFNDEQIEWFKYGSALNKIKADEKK
Method: Cultures of Saccharomyces cerevisiae strain BY4741 are grown in YPD (20 grams glucose, 20 grams peptone, 10 grams yeast extract per liter) broth overnight at 30°. The cultures are diluted with YPD to a total volume of 100 mls with an optical density (600 nm) of 0.1. The cultures are incubated with shaking until reaching an optical density of 0.2, whereupon the test material is added. The cultures are incubated overnight, and the cells are pelleted by centrifugation. The cell pellet is washed with 100 mM NaCl, 20 mM Tris pH 7.4 and resuspended in 5 ml of 100 mM NaCl, 20 mM Tris pH 7.4. Glass beads (0.5 mm) is added. The sample is alternately vortexed for one minute and incubated on ice for one minute, with a total of ten treatments. After centrifugation, the supernatant is collected. In a 96-well plate (UV-transparent Corning 3679 plate), 30 μl of cell lysate is mixed with 20 μl 100 mM NaCl, 20 mM Tris pH 7.4 and assayed using a Bioxytech Aconitase-340 kit (OxisResearch) according to instructions.
For the aconitase assay, samples are incubated for six minutes at 37°. The reaction rate is calculated based on the increase in optical density (340 nm) in the five-minute interval beginning one minute after the reaction started. The aconitase activity in lysates of treated samples is divided by the aconitase activity in lysates of untreated samples. If replicates were performed on samples, the reported data are a mean of the aconitase activity measurements of individual lysates of treated cells divided by the mean of the aconitase activity measurements of individual lysates of untreated cells. If the aconitase activity appears to be negative in lysates of treated cells, the value “0” is reported for aconitase activity (Table 1).

Row | Compound | Aconitase Activity, % of Untreated Control (aconitase; 50 ppm test material) [%] | also measured
1 | [O-]n1ccccc1=S.[O-]n1ccccc1=S.[Zn+2] [Zinc pyrithione (ZPT), zinc salt of 1-hydroxy-2-pyridinethione] |  | Growth inhibition (in words) (Saccharomyces): inhibits growth; Aconitase Activity, % of Untreated Control (aconitase; 5 ppm test material): 0%; Aconitase inhibition (in words) (aconitase): aconitase inhibition
2 | Cc1cc(CC(C)CC(C)(C)C)n(O)c(=O)c1.NCCO (centres unmarked) [Piroctone Diamine (Octopirox), Piroctone Diamine] | 0 | 
3 | c1cnc2c(c1)ccc1cccnc12 [1,10-Phenanthroline] | 2 | 
4 | Oc1cccc2cccnc12 [8-Hydroxyquinoline] | 15 | 
5 | O=S(=O)([O-])[O-].[Zn+2] [Zinc Sulfate] | 110 | 
6 | O=C(O)CN(CCN(CC(=O)O)CC(=O)O)CC(=O)O [EDTA] | 36 | Aconitase inhibition (in words) (aconitase): not effective
7 | On1ccccc1=S.On1ccccc1=S.[Cu] [Copper Pyrithione (CuPT), Copper Pyrithione] |  | Aconitase Activity, % of Untreated Control (aconitase; 5 ppm test material): 0%
8 | CCCCCCCCOc1cccc(=O)n1O.NCCO [N-Hydroxy-6-octyloxypyridine-2(1H)one, ethanolamine salt] | 0 | 
